Source: patent publication US8829034B2, “Compounds which modulate the CB2 receptor” (Boehringer Ingerlheim International GmbH, priority 2006, dated 2014)

Molecular target: T1, human CB2R (Homo sapiens, UniProt P34972)
T1 construct: host or cells: CHO cells
Test: CB2R mediated modulation of cAMP synthesis
Assay type: cell-based
Conditions: for agonistic activity: found through the use of the above described assays
Summary of the method: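 CHO cells expressing human CB2R were treated with compound for 30 min at 37 °C in buffer containing 1 mM IBMX, 0.25% BSA and 10 uM forskolin. cAMP was measured after lysis. EC50 was taken as 50% inhibition of forskolin-stimulated cAMP, with 100% defined by 1 uM CP55940, using a four-parameter logistic fit.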

T1 sequence (P34972 whole entry): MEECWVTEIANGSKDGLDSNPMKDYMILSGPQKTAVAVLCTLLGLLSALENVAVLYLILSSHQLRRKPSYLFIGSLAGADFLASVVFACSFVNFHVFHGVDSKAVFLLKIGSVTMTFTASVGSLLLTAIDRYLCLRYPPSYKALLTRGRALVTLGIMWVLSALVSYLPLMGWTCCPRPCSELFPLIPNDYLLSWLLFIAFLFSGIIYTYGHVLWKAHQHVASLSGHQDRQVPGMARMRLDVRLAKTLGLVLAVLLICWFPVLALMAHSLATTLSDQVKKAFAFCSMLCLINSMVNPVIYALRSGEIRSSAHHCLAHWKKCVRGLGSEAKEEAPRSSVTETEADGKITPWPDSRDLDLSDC

SMILES	EC50 [nM]	agonistic activity
CC(C)S(=O)(=O)C(C)(C)C(=O)Nc1nc(-c2ccc(Cl)cc2)cs1 [N-[4-(4-Chloro-phenyl)-thiazol-2-yl]-2-methyl-2-(propane-2-sulfonyl)-propionamide]	44.9	agonistic activity
CC(C)(C(=O)Nc1nc(-c2ccc(Cl)cc2)cs1)S(=O)(=O)CC1CCOCC1 [N-[4-(4-Chloro-phenyl)-thiazol-2-yl]-2-methyl-2-(tetrahydro-pyran-4-ylmethanesulfonyl)-propionamide]	2.2	agonistic activity
CC(C)(C(=O)Nc1nc(-c2ccc(F)cc2)cs1)S(=O)(=O)CC1CCOCC1 [N-[4-(4-Fluoro-phenyl)-thiazol-2-yl]-2-methyl-2-(tetrahydro-pyran-4-ylmethanesulfonyl)-propionamide]	5.5	agonistic activity
